Measured values as given in ChEMBL document CHEMBL5380794, “Discovery of a Potent and Selective STAT5 PROTAC Degrader with Strong Antitumor Activity In Vivo in Acute Myeloid Leukemia” (J Med Chem, 2023).
pIC50: −log10 of the molar value. Active and inactive are the calls of the source. The calls are words filed in the database; no cut-off is given here.

Columns and labels:
STAT5A/STAT5B = target: T1, STAT5A/STAT5B (Homo sapiens, UniProt P42229+P51692); test: Induction of STAT5A/5B degradation in human MV4-11 cells measured for 6 hrs by immunoblotting analysis; format: cell-based
T1 sequence (P42229 whole entry): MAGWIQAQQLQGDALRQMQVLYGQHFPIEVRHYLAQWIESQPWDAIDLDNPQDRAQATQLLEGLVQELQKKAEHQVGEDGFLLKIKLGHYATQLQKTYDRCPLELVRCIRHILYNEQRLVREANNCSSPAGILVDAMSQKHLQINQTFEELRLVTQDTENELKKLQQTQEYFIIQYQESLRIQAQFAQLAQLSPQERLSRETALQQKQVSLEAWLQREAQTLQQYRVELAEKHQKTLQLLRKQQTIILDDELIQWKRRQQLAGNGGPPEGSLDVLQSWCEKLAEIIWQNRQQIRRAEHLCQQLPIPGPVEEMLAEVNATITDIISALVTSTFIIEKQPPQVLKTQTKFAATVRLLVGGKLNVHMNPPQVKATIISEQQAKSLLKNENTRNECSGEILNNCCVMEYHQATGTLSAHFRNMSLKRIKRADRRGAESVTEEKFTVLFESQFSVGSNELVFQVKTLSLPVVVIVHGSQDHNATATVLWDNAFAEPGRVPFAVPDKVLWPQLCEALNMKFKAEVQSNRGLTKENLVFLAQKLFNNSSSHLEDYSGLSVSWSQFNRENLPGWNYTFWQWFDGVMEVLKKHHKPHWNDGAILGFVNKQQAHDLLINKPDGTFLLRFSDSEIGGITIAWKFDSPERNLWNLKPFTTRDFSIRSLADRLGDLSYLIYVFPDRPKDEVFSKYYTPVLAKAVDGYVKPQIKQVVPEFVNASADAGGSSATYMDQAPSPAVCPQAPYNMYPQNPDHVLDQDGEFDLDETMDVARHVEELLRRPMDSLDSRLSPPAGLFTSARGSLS
T1 sequence (P51692 whole entry): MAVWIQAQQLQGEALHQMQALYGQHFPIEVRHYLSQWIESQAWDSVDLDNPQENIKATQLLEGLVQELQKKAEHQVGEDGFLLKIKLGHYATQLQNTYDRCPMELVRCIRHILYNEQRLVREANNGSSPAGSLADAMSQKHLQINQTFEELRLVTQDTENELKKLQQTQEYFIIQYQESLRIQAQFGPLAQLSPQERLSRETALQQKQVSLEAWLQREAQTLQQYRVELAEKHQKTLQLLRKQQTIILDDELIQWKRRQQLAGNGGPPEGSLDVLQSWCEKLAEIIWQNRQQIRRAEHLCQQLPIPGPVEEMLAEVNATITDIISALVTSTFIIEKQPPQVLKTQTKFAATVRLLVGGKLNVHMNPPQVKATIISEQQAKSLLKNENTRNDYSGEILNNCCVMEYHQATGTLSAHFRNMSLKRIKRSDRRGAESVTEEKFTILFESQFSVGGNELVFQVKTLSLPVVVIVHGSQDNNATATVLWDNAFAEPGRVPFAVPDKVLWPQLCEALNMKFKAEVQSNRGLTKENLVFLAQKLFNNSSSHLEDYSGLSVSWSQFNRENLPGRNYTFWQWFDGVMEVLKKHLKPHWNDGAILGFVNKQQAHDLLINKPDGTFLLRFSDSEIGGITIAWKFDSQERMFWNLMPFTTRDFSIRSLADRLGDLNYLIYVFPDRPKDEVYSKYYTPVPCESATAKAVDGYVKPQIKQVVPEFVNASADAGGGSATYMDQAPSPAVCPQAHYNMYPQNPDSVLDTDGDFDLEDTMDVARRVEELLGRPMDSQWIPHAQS

[1] = Antiproliferative activity against human SKNO-1 cells assessed as maximal cell growth inhibition measured for 4 days by celltiter-glo assay relative to control; format: functional; conditions: time 4 day
[2] = Antiproliferative activity against human Kasumi-3 cells assessed as maximal cell growth inhibition measured for 4 days by celltiter-glo assay relative to control; format: functional; conditions: time 4 day
RS4-11 = test: Antiproliferative activity against human RS4-11 cells assessed as maximal cell growth inhibition measured for 4 days by celltiter-glo assay relative to control; format: functional; conditions: time 4 day
MV4-11 [3] = test: Effect on STAT2 level in human MV4-11 cells upto 5 uM measured for 18 hrs by Western blot analysis; format: functional, cell-based
[4] = Apparent volume of distribution in SCID mouse at 150 mg/kg, ip; format: ADME, organism-based; conditions: in vivo
[5] = target: T2, Signal transducer and activator of transcription 5A (Homo sapiens, UniProt P42229); test: Induction of STAT5 degradation in human Kasumi-3 cells assessed as reduction in phosphorylated STAT5 level measured for 18 hrs by immunoblotting analysis; format: cell-based
T2 sequence (P42229 whole entry): T1 sequence (P42229 whole entry)

SKNO-1 = test: Effect on STAT4 level in human SKNO-1 cells upto 5 uM measured for 18 hrs by Western blot analysis; format: functional, cell-based
[6] = In vivo induction of degradation of STAT5 in human MV4-11 cells xenografted in SCID mouse assessed as reduction in STAT5 phosphorylation at Y694 residue at 150 mg/kg, ip measured at 1 to 24 hrs by immunoblotting analysis; format: functional; design: scale not given: the % may be the effect or the level left; conditions: time 1-24 hrs
[7] = Antiproliferative activity against human OCI-M2 cells assessed as maximal cell growth inhibition measured for 4 days by celltiter-glo assay relative to control; format: functional; conditions: time 4 day
[8] = target: T2, Signal transducer and activator of transcription 5A; test: Induction of STAT5 degradation in human SKNO-1 cells measured for 18 hrs by Western blot analysis; format: cell-based
MV4-11 [9] = test: Antiproliferative activity against human MV4-11 cells assessed as cell growth inhibition measured for 4 days by celltiter-glo assay; conditions: MV4-11, 96 h

DC50 (STAT5A/STAT5B): 50 nM
Vz [4]: 2.1 L/kg
DC50 [5]: 250 nM
DC50 [8]: 100 nM
pIC50 (MV4-11 [9]): 6.74
Structure (SMILES): CN(CCCC#Cc1cccc2c1CN(C1CCC(=O)NC1=O)C2=O)C(=O)CCN(C(=O)[C@@H]1CCCN1C(=O)[C@@H](NC(=O)c1cc2cc(C(F)(F)P(=O)(O)O)ccc2s1)C(C)(C)C)c1ccc(-c2nccs2)cc1 (some centres not stated)
Imax [1]: 64%
Imax [2]: 72%
Imax (RS4-11): <5%
Activity (MV4-11 [3]): inactive
Activity (SKNO-1): inactive
Activity [6]: >95%
Imax [7]: <5%
